Calls of active or inactive are those of the source. No cut-off for these calls is given here.

The values that follow come from ChEMBL document CHEMBL2157906, “Identification of a dual δ OR antagonist/μ OR agonist as a potential therapeutic for diarrhea-predominant Irritable Bowel Syndrome (IBS-d)” (Bioorg Med Chem Lett, 2012).

Data set [1] has as its target T1, Mu-type opioid receptor (Homo sapiens, UniProt P35372). In words: Agonist activity at mu opioid receptor expressed in CHO-hg cells by [35S]-GTPgammaS binding assay. Format: functional, cell-based.
For data set [2], the target named is T2, Delta-type opioid receptor (Homo sapiens, UniProt P41143). The data set can be described thus: Agonist activity at delta opioid receptor expressed in CHO-hg cells by [35S]-GTPgammaS binding assay. Format: functional, cell-based.
T2 sequence (P41143 whole entry): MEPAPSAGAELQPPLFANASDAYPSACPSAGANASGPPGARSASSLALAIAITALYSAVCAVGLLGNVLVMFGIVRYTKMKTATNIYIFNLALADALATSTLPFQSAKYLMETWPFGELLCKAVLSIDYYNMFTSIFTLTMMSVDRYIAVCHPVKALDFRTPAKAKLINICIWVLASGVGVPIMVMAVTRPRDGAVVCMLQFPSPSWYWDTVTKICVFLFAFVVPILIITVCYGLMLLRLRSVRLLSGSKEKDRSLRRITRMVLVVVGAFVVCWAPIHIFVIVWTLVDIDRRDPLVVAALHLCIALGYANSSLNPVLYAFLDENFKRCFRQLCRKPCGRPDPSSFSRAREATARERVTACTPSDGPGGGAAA
Data set [3] has as its target Mu-type opioid receptor (Rattus norvegicus, UniProt P33535). In words: Binding affinity to rat mu opioid receptor.
Data set [4] concerns the target T3, Kappa-type opioid receptor (Cavia porcellus, UniProt P41144). The data set can be described thus: Binding affinity to guinea pig kappa opioid receptor.
Data set [5] concerns the target Delta-type opioid receptor (Rattus norvegicus, UniProt P33533). In words: Binding affinity to rat delta opioid receptor.
Data set [6] deals with T3, Kappa-type opioid receptor. In words: Agonist activity at kappa opioid receptor guinea pig colon tissue. Format: functional, tissue-based.
Data set [7] concerns the target Voltage-gated inwardly rectifying potassium channel KCNH2 (Homo sapiens, UniProt Q12809). In words: Displacement of [3H]-astemizole from human ERG.
The nature of data set [8]: Solubility of the compound at pH 7.4. Format: physicochemical. The note with it: buffer.
The nature of data set [9]: Half life in human liver microsomess. The format is ADME, Microsome. The note with it: liver microsomes.
For the next data set, the target named is Cytochrome P450 3A4 (Homo sapiens, UniProt P08684). In words: Inhibition of CYP3A4 in human liver microsomes. Format: ADME, Microsome.
Sequence of Cytochrome P450 3A4 (P08684 whole entry): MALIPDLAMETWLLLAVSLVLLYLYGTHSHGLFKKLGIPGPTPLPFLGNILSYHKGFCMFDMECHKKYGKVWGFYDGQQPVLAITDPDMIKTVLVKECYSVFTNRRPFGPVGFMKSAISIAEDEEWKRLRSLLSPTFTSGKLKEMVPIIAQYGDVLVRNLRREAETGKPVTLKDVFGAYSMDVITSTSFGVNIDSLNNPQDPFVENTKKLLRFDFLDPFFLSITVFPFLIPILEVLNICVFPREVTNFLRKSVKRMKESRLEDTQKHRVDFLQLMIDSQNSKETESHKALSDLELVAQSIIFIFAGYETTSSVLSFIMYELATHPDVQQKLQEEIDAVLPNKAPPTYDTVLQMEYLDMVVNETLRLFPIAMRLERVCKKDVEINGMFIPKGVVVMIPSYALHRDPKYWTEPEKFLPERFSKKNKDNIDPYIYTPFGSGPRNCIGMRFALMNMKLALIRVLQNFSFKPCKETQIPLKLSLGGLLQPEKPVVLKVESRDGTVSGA
For data set [10], the target named is T1, Mu-type opioid receptor. In words: Binding affinity to human mu opioid receptor.
In data set [11] the target is T2, Delta-type opioid receptor. In words: Antagonist activity at delta opioid receptor expressed in CHO-hg cells assessed as inhibition of SNC-80-induced [35S]-GTPgammaS binding. The format is functional, cell-based.
Data set [12] is described as follows: Antagonist activity at delta opioid receptor in hamster vas deferens tissue. Format: functional, tissue-based. The note with it: Cricetinae.

Sequence of Mu-type opioid receptor (Rattus norvegicus, UniProt P33535) (P33535 whole entry): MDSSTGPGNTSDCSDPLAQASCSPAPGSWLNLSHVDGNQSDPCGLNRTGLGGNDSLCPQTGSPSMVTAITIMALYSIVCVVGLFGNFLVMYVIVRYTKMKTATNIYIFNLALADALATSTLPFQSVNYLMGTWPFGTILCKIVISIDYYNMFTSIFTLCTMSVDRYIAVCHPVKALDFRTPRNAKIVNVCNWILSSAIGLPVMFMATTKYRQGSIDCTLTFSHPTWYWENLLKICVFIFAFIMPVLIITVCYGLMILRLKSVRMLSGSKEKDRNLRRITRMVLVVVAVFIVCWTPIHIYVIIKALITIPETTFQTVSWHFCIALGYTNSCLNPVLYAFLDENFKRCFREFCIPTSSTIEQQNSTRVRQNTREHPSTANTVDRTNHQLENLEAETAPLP
T1 sequence (P35372 whole entry): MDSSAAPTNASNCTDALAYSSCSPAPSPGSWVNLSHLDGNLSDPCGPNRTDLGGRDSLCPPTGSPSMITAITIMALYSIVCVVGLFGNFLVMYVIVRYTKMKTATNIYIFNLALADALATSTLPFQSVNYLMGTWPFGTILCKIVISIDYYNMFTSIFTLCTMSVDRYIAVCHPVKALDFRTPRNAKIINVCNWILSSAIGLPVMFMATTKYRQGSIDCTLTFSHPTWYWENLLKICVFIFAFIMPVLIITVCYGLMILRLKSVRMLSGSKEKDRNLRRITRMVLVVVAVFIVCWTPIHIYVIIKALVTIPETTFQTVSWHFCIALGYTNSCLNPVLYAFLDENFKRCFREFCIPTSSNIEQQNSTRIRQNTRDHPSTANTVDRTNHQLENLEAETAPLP
Sequence of Delta-type opioid receptor (Rattus norvegicus, UniProt P33533) (P33533 whole entry): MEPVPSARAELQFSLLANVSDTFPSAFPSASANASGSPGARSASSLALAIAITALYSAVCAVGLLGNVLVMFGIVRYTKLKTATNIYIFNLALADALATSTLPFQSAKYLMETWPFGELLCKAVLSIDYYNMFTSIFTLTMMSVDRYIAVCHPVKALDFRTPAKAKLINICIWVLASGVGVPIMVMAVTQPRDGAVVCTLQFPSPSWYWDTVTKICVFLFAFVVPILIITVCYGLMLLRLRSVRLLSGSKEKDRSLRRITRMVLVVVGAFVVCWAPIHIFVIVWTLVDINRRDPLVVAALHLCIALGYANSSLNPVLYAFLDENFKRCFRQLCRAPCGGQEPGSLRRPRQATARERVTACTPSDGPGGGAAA
T3 sequence (P41144 whole entry): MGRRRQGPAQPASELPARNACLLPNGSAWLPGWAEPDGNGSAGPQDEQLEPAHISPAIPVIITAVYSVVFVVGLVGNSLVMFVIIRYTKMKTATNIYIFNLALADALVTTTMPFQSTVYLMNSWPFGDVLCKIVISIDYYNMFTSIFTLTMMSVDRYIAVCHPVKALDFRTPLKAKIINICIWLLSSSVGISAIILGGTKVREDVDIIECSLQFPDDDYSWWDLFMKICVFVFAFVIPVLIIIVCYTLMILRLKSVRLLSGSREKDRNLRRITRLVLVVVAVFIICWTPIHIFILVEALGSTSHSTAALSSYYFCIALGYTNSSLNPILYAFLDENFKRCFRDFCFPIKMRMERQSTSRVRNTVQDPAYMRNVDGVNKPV
Sequence of Voltage-gated inwardly rectifying potassium channel KCNH2 (Q12809 whole entry): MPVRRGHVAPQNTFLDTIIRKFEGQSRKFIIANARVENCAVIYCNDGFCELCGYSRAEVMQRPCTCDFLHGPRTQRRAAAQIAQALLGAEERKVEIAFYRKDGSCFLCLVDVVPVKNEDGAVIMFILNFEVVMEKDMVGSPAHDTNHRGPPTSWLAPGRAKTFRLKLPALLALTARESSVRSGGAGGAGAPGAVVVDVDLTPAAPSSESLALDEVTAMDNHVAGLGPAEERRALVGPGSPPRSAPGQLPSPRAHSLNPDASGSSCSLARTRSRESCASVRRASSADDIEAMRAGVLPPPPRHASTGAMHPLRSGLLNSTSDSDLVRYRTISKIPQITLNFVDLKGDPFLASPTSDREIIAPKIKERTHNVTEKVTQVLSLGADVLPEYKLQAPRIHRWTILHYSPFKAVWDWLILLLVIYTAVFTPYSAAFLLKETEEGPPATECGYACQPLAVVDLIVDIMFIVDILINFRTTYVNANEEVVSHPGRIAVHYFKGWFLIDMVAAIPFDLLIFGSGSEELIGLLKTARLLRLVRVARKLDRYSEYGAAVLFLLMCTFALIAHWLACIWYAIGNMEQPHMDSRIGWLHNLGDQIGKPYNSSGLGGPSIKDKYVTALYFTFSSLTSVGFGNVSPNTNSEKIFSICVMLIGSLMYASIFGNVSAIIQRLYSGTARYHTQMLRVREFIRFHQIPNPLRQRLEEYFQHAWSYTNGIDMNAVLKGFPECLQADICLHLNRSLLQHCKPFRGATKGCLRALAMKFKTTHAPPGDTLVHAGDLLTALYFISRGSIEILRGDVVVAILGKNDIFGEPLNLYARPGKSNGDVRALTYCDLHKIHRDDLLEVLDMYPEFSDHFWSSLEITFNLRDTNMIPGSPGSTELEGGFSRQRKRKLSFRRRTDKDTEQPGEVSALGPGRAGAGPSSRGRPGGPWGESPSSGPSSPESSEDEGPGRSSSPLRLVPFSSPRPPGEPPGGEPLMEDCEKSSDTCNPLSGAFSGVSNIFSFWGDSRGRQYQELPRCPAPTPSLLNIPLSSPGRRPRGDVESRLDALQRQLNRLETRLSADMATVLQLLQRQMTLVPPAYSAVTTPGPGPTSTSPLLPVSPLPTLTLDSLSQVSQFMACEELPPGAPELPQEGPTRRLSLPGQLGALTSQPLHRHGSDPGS

As for `Cc1cc(O)cc(C)c1C[C@H](N)C(=O)N1CCCC[C@H]1c1nc(-c2ccccc2)c[nH]1`, the EC50 at Mu-type opioid receptor [1] was 2 nM; in [2], 37 nM.

Regarding `COc1ccc(CN(C(=O)[C@@H](N)Cc2c(C)cc(C(N)=O)cc2C)[C@@H](C)c2nc(-c3ccccc3)c[nH]2)cc1C(=O)O` [ELUXADOLINE], the Ki at Mu-type opioid receptor [3] was determined as 0.9 nM; in [4], 55 nM; in data set [5], 1.3 nM. Further, the 50% effective concentration (EC50) in [6] was 1600 nM; in data set [2] it was above 10000 nM.

The molecule `Cc1cc(O)cc(C)c1C[C@H](N)C(=O)N[C@@H](Cc1ccccc1)c1nc(-c2ccccc2)c[nH]1` returned a Ki at Mu-type opioid receptor [3] of 13 nM.

Consider `COc1ccc(CN(C(=O)[C@@H](N)Cc2c(C)cc(C(N)=O)cc2C)C(C)c2nc(-c3ccccc3)c[nH]2)cc1C(=O)O.Cl.Cl` (single isomer, unassigned), for which the values for the 50% inhibitory concentration (IC50) (in data set [7]; on Cytochrome P450 3A4) were above 10000 nM and above 20000 nM, respectively. For the same molecule, the solubility in data set [8] was above 1000 µg/mL. The half-life in data set [9] turned out to be 2.5 h. Further, the Ki at Mu-type opioid receptor [10] came to 1.7 nM.

In the case of `Cc1cc(O)cc(C)c1C[C@H](N)C(=O)N(C(C)C)[C@@H](C)c1nc(-c2ccccc2)c[nH]1`, the values for the inhibition constant Ki (on Mu-type opioid receptor [3]; in data set [5]) were 0.03 nM and 1.4 nM, respectively. Further, the half-maximal effective concentration (EC50) in data set [2] came to 103 nM.

As to `Cc1cc(C(N)=O)cc(C)c1C[C@H](N)C(=O)N(Cc1cccc(C(=O)O)c1)[C@@H](C)c1nc(-c2ccccc2)c[nH]1`, the inhibition constant Ki turned out to be 1 nM on Mu-type opioid receptor [3] and 0.5 nM in [5]. Moreover, the inhibition entry in data set [11] is “Active”. The same molecule registered an EC50 in [2] above 10000 nM.

As for `N[C@@H](Cc1ccc(O)cc1)C(=O)N1Cc2ccccc2C[C@H]1c1nc(-c2ccccc2)c[nH]1`, the results for the half-maximal effective concentration (EC50) (on Mu-type opioid receptor [1]; in data set [2]) were 2440 nM and 19 nM, respectively.

As to `COc1ccc(CN(C(=O)[C@@H](N)Cc2c(C)cc(C(N)=O)cc2C)[C@@H](C)c2ncc(-c3ccccc3)[nH]2)cc1C(=O)O` [ELUXADOLINE], the inhibition entry in data set [11] was “Active”. For the same molecule, half-maximal inhibition in data set [12] (IC50) required 89 nM.

`Cc1cc(O)cc(C)c1C[C@H](N)C(=O)N(Cc1ccccc1)[C@@H](C)c1nc(-c2ccccc2)c[nH]1` returned a Ki in data set [5] of 1.5 nM.

On to `Cc1cc(C(N)=O)cc(C)c1C[C@H](N)C(=O)N1CCCC[C@H]1c1nc(-c2ccccc2)c[nH]1`, for which the half-maximal effective concentration (EC50) was determined as 9 nM at Mu-type opioid receptor [1] and 135 nM in [2].

Take `Cc1cc(C(N)=O)cc(C)c1C[C@H](N)C(=O)N1Cc2ccccc2C[C@H]1c1nc(-c2ccccc2)c[nH]1`: the results for the concentration for a half-maximal effect (EC50) (on Mu-type opioid receptor [1]; in data set [2]) were 161 nM and 22 nM, respectively.

`Cc1cc(C(N)=O)cc(C)c1C[C@H](N)C(=O)N(Cc1ccccc1)[C@@H](C)c1nc(-c2ccccc2)c[nH]1` had an inhibition constant Ki on Mu-type opioid receptor [3] of 0.3 nM.

For the molecule `Cc1cc(O)cc(C)c1C[C@H](N)C(=O)N(Cc1nc(-c2ccccc2)c[nH]1)C(C)C`, the Ki at Mu-type opioid receptor [3] is 0.1 nM; in [5] it was 15 nM.

In turn, `Cc1cc(O)cc(C)c1C[C@H](N)C(=O)N(C)[C@@H](C)c1nc(-c2ccccc2)c[nH]1` displayed a Ki in data set [5] of 15 nM.

Take `Cc1cc(O)cc(C)c1C[C@H](N)C(=O)N1Cc2ccccc2C[C@H]1c1nc(-c2ccccc2)c[nH]1`: the EC50 at Mu-type opioid receptor [1] worked out at 27 nM; in data set [2], 0.9 nM.
